Reference: US11312706B2, “Cyclohexyl acid pyrazole azines as LPA antagonists” (BRISTOL-MYERS SQUIBB COMPANY, priority 2017, dated 2022)

Tested on: nerve-injured mice
Assay: not given
Settings: pretreatment; cited from earlier work

| Compound | allodynia and hyperalgesia |
| --- | --- |
| C[C@@H](N)[C@H]1CC[C@H](C(=O)Nc2ccncc2)CC1 [Example Y-27632] | completely abolished |

Molecular target: T1, human LPA1 (Homo sapiens, UniProt Q92633)
T1 construct: expressed in transfected cells; host or cells: Chinese hamster ovary (CHO) cells
T1 sequence (Q92633 whole entry): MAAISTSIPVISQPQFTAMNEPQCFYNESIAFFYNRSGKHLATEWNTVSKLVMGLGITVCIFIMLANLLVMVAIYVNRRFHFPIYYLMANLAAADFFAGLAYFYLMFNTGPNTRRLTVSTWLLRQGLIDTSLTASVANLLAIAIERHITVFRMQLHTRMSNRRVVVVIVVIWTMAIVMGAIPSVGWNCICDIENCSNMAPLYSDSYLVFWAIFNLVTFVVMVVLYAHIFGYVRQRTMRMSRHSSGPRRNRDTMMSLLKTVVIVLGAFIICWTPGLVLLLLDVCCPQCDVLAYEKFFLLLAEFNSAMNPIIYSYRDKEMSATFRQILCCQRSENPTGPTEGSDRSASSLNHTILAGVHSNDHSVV
Assay: LPA1 functional antagonist assay (LPA-induced calcium flux)
Type: cell-based
Settings: CHO cells overexpressing human LPA1, 10 nM LPA, read-out: hLPA1 IC50
Description: The effectiveness of compounds of the present invention as LPA1 inhibitors can be determined in an LPA1 functional antagonist assay as follows:
Chinese hamster ovary cells overexpressing human LPA1 were plated overnight (15,000 cells/well) in poly-D-lysine coated 384-well microplates (Greiner bio-one, Cat #781946) in DMEM/F12 medium (Gibco, Cat #11039). Following overnight culture, cells were loaded with calcium indicator dye (AAT Bioquest Inc, Cat #34601) for 30 minutes at 37° C. The cells were then equilibrated to room temperature for 30 minutes before the assay. Test compounds solubilized in DMSO were transferred to 384 well non-binding surface plates (Corning, Cat #3575) using the Labcyte Echo acoustic dispense and diluted with assay buffer [1×HBSS with calcium/magnesium (Gibco Cat #14025-092), 20 mM HEPES (Gibco Cat #15630-080) and 0.1% fatty acid free BSA (Sigma Cat #A9205)] to a final concentration of 0.5% DMSO. Diluted compounds were added to the cells by FDSS6000 (Hamamatsu) at final concentrations ranging from 0.08 nM to 5 μM. and were then incubated for 20 min at room temperature at which time LPA (Avanti Polar Lipids Cat #857130C) was added at final concentrations of 10 nM to stimulate the cells. The compound IC50 value was defined as the concentration of test compound which inhibited 50% of the calcium flux induced by LPA alone. IC50 values were determined by fitting data to a 4-parameter logistic equation (GraphPad Prism, San Diego Calif.).

| Compound | IC50 |
| --- | --- |
| Cn1ncc(-c2ccc(O[C@H]3CCC[C@H](C(=O)O)C3)cn2)c1Nc1cccc(-c2cccc(F)c2)n1 [Example 42, (1S,3S)-3-{[6-(5-{[6-(3-fluorophenyl)pyridin-2-yl]amino}-1-methyl-1H-pyrazol-4-yl)pyridin-3-yl]oxy}cyclohexane-1-carboxylic acid] | 137 nM |
| CCOc1ccnc(NCc2c(-c3ncc(O[C@H]4CCC[C@H](C(=O)O)C4)c(CC)n3)cnn2C)n1 [Example 21, (1S,3S)-3-((2-(5-(((4-ethoxypyrimidin-2-yl)amino)methyl)-1-methyl-1H-pyrazol-4-yl)-4-ethylpyrimidin-5-yl)oxy)cyclohexane-1-carboxylicacid] | 5 nM |
| Cc1nc(-c2cnn(C)c2CNc2nccc(OC(C)C)n2)ncc1O[C@H]1CCC[C@H](C(=O)O)C1 [Example 2, (1S,3S)-3-((2-(5-(((4-Isopropoxypyrimidin-2-yl)amino)methyl)-1-methyl-1H-pyrazol-4-yl)-4-methylpyrimidin-5-yl)oxy)cyclohexane-1-carboxylic acid] | 29 nM |
| Cc1nc(-c2cnn(C)c2Nc2nccc(OC(C)C)n2)ncc1O[C@H]1CCC[C@H](C(=O)O)C1 [Example 18, (S,3S)-3-((2-(5-((4-isopropoxypyrimidin-2-yl)amino)-1-methyl-1H-pyrazol-4-yl)-4-methyl-pyrimidin-5-yl)oxy)cyclohexane-1-carboxylic acid] | 1010 nM |
| Cc1nc(-c2cnn(C)c2CNc2nccc(C(C)C)n2)ncc1O[C@H]1CCC[C@H](C(=O)O)C1 [Example 10, (1S,3S)-3-((2-(5-(((4-isopropyl-pyrimidin-2-yl)amino)methyl)-1-methyl-1H-pyrazol-4-yl)-4-methyl-pyrimidin-5-yl)oxy)cyclohexane carboxylic acid] | 47 nM |
| CCc1nc(-c2cnn(C)c2CNc2nccc(OCCCF)n2)ncc1O[C@H]1CCC[C@H](C(=O)O)C1 [Example 25, (1S,3S)-3-((4-ethyl-2-(5-(((4-(3-fluoropropoxy)pyrimidin-2-yl)amino)methyl)-1-methyl-1H-pyrazol-4-yl)pyrimidin-5-yl)oxy)cyclohexane-1-carboxylic acid] | 18 nM |
| CCOc1ccnc(NCc2c(-c3ncc(O[C@H]4CCC[C@H](C(=O)O)C4)cn3)cnn2C)n1 [Example 28, (1S,3S)-3-((2-(5-(((4-ethoxypyrimidin-2-yl)amino)methyl)-1-methyl-1H-pyrazol-4-yl)pyrimidin-5-yl)oxy)cyclohexane-1-carboxylic acid] | 23 nM |
| COc1ccnc(NCc2c(-c3ncc(O[C@H]4CCC[C@H](C(=O)O)C4)c(C)n3)cnn2C)n1 [Example 6, (1S,3S)-3-((2-(5-(((4-methoxy-pyrimidin-2-yl)amino)methyl)-1-methyl-1H-pyrazol-4-yl)-4-methylpyrimidin-5-yl)oxy)cyclohexane-1-carboxylic acid] | 74 nM |
| Cc1nc(-c2cnn(C)c2CNc2ccnc(OC3CC(F)(F)C3)n2)ncc1O[C@H]1CCC[C@H](C(=O)O)C1 [Example 32, (1S,3S)-3-((2-(5-(((2-(3,3-difluorocyclobutoxy)pyrimidin-4-yl)amino)methyl)-1-methyl-1H-pyrazol-4-yl)-4-methylpyrimidin-5-yl)oxy)cyclohexane-1-carboxylic acid] | 619 nM |
| Cc1nc(-c2cnn(C)c2CNc2nccc(-c3ccccc3)n2)ccc1O[C@H]1CCC[C@H](C(=O)O)C1 [Example 4, (1S,3S)-3-((2-methyl-6-(1-methyl-5-(((4-phenylpyrimidin-2-yl)amino)methyl)-1H-pyrazol-4-yl)pyridin-3-yl)oxy)cyclohexanecarboxylic acid] | 54 nM |
| Cc1nc(-c2cnn(C)c2CNc2nccc(C3CC3)n2)ncc1O[C@H]1CCC[C@H](C(=O)O)C1 [Example 12, (1S,3S)-3-((2-(5-(((4-cyclopropyl-pyrimidin-2-yl)amino)methyl)-1-methyl-1H-pyrazol-4-yl)-4-methyl-pyrimidin-5-yl)oxy)cyclohexane-1-carboxylic acid] | 172 nM |
| Cn1ncc(-c2ccc(O[C@H]3CCC[C@H](C(=O)O)C3)cn2)c1COc1cccc(-c2ccccc2)c1 (relative stereo) [Example 30, Trans-3-((6-(5-(([1,1′-biphenyl]-3-yloxy)methyl)-1-methyl-1H-pyrazol-4-yl)pyridin-3-yl)oxy)cyclohexane-1-carboxylicacid] | 104 nM |
| Cc1cc(-c2ccccn2)nc(NCc2c(-c3ccc(O[C@H]4CCC[C@H](C(=O)O)C4)c(C)n3)cnn2C)n1 [Example 5, (1S,3S)-3-((2-methyl-6-(1-methyl-5-(((4-methyl-6-(pyridin-2-yl)pyrimidin-2-yl)amino)methyl)-1H-pyrazol-4-yl)pyridin-3-yl)oxy)cyclohexanecarboxylic acid] | 217 nM |
| (1S,3S)-3-((2-(5-(((4-(2-fluoro-phenyl)pyrimidin-2-yl)amino) methyl)-1-methyl-1H-1,2,3-triazol-4-yl)-4-methylpyrimidin-5-yl)oxy)cyclohexanecarboxylic acid [Example 14] | 22 nM |
| CCc1nc(-c2cnn(C)c2CNc2nccc(OC3CC3)n2)ncc1O[C@H]1CCC[C@H](C(=O)O)C1 [Example 22, (1S,3S)-3-((2-(5-(((4-cyclopropoxy-pyrimidin-2-yl)amino)methyl)-1-methyl-1H-pyrazol-4-yl)-4-ethylpyrimidin-5-yl)oxy)cyclohexane-1-carboxylic acid] | 7 nM |
| COCCOc1ccnc(NCc2c(-c3ncc(O[C@H]4CCC[C@H](C(=O)O)C4)c(C)n3)cnn2C)n1 [Example 34, (1S,3S)-3-((2-(5-(((4-(2-methoxyethoxy)pyrimidin-2-yl)amino)methyl)-1-methyl-lH-pyrazol-4-yl)-4-methylpyrimidin-5-yl)oxy)cyclohexane-1-carboxylic acid] | 78 nM |
| CCc1ccnc(NCc2c(-c3ncc(O[C@H]4CCC[C@H](C(=O)O)C4)c(C)n3)cnn2C)n1 [Example 35, (1S,3S)-3-((2-(5-(((4-ethylpyrimidin-2-yl)amino)methyl)-1-methyl-1H-pyrazol-4-yl)-4-methylpyrimidin-5-yl)oxy)cyclohexane-1-carboxylic acid] | 207 nM |

Tested on: highly peritoneal metastatic pancreatic cancer cell line
Assay: not given
Settings: cited from earlier work

| Compound | LPA-induced and ascites-induced invasion activity |
| --- | --- |
| Cc1noc(-c2ccc(CSCCC(=O)O)cc2)c1NC(=O)OC(C)c1ccccc1Cl (stereo not drawn) [Ki16425] | blocked |

Tested on: mouse epithelial renal cell line, MCT
Assay: not given
Settings: MCT cells, co-treatment with LPA; cited from earlier work

| Compound | induction of CTGF expression by LPA |
| --- | --- |
| Cc1noc(-c2ccc(CSCCC(=O)O)cc2)c1NC(=O)OC(C)c1ccccc1Cl (stereo not drawn) [Ki16425] | almost completely suppressed |

Tested on: IPF patients
Assay: not given
Settings: 26 weeks; cited from earlier work

| Compound | rate of FVC (forced vital capacity) decline |
| --- | --- |
| Cc1noc(-c2ccc(-c3ccc(C4(C(=O)O)CC4)cc3)cc2)c1NC(=O)O[C@H](C)c1ccccc1 [BMS-986020] | significantly reduce the rate of FVC (forced vital capacity) decline |

Tested on: human foetal lung fibroblasts
Assay: not given
Settings: bronchoalveolar lavage samples of IPF subjects; cited from earlier work

| Compound | fibroblast chemotactic activity |
| --- | --- |
| Cc1noc(-c2ccc(CSCCC(=O)O)cc2)c1NC(=O)OC(C)c1ccccc1Cl (stereo not drawn) [Ki16425] | inhibited |

Tested on: UUO mice
Assay: not given
Settings: cited from earlier work

| Compound | development of renal fibrosis, profile |
| --- | --- |
| Cc1noc(-c2ccc(CSCCC(=O)O)cc2)c1NC(=O)OC(C)c1ccccc1Cl (stereo not drawn) [Ki16425] | closely resembled the profile of LPA1 (−/−) mice |

Tested on: pancreatic cancer cell lines
Assay: not given
Settings: ascites from pancreatic cancer patients; cited from earlier work

| Compound | in vitro migration in response to LPA and peritoneal fluid (ascites) |
| --- | --- |
| Cc1noc(-c2ccc(CSCCC(=O)O)cc2)c1NC(=O)OC(C)c1ccccc1Cl (stereo not drawn) [Ki16425] | effectively blocked |
